Several values for one entry are separate records, joined by “and”; a condition that tells them apart may be missing. Identical values can stand only once.
What was measured:
[1] = test system: Herpes simplex virus type I and Herpes simplex virus type II; assay: Intravaginal treatment of Herpes simplex virus type I and type II infection in guinea pigs, final score (Table 2); format: in vivo
Experimental: A second in-vivo test against Herpes simplex virus type I and Herpes simplex virus type II was carried out as follows. Guinea pigs were inoculated intravaginally by swabing the vagina with an absorbent cotton swab containing 2×10^4 plaque forming units of the virus. Prior to the inoculation with the virus, the vagina was swabbed with physiological saline to remove potential virus inhibitors. Treatment was started four hours after inoculation and continued for four days. The drug in a suitable base was introduced into the vaginal area also with an absorbent cotton swab. Controls in which the vehicle only were swabbed were included. Beginning on day 5 after inoculation and continuing through day 10, each animal was examined and scored from 0 to 4+ for secretion, inflammation, vesiculation and necrosis, thus yielding a possible top score of +16 per guinea pig. In the table, column 1 gives the name of the compound; column 2, the vehicle; column 3, the concentration; column 4, the number of animals used; and columns 5, the final score.

[2] = test system: cutaneous Herpes simplex virus type 1; assay: Topical treatment of cutaneous Herpes simplex virus type 1 lesions on guinea pig back, final score (Table 1); format: in vivo, guinea pigs; details: 1.0 % conc., lesions scored 0 to 4+
Experimental: Three epilated areas on each guinea pig back were inoculated with approximately 1×10^5 plaque forming units of virus using a Sterneedle triggered 10 times for each area. Untreated guinea pigs so inoculated developed consistent rosette lesions in about 96 hours. All three areas on the back of each guinea pig were drug-treated and these compared with separate control animals which were treated with the particular vehicle employed for administering the drug. The positive control animals were treated with 0.5-1.0 percent phosphonoacetic acid (PAA) suspended in the same vehicle as the drug. Animals were inoculated on the morning of day 1 and treated on the afternoon of day 1. Two treatments per day were administered through day 5 for a total of 10 treatments. Hair was again epilated on day 5 and readings were begun then and taken daily through day 10. Lesions for each area were scored from 0 to 4+, which was a fully developed herpatic lesion with inflammation vesicles and pustules. An average score was then calculated for each drug for each day for the number of treated areas and control areas. Usually 3-6 guinea pigs were used per drug. After scoring, a final score or mean of means was calculated for drug-treated and for control areas. Table I which follows gives the results of determinations carried out as outlined above on compounds coming within the scope of this invention. In the table, column 1 gives the name of the drugs, column 2, the vehicle, column 3, the concentration; column 4, the number of animals used; and columns 5, the final score.

Herpes simplex virus = assay: In vitro plaque inhibition of Herpes simplex virus in BSC-1 or Hela cells (Table 3); format: cell-based; details: 72 hours at 37° C.
Experimental: The compounds of this invention also have anti-viral activity in vitro against Herpes simplex virus.
African green monkey kidney cells (BSC-1) or Hela cells (5-3) were grown in 25 cc. Falcon flasks at 37° C. in medium 199 with 5 percent inactivated fetal bovine serum (FBS), penicillin (150 units 1 ml.) and streptomycin (150 mcg./ml.). When confluent monolayers were formed, the supernatant growth medium was removed and 0.3 ml. of an appropriate dilution of Herpes simplex virus was added to each flask. After adsorption for one hour at room temperature, the virus infected cell sheet was overlaid with a medium comprising one part of 1 percent Ionagar No. 2 and one part double strength medium 199 with FCS, (fetal calf serum) penicillin, and streptomycin and also containing drug at concentrations of 100, 50, 25, 12, 6 and 3 micrograms per milliliter (mcg./ml.). The flask containing no drug served as a control. The stock solutions of 2,3-dihydroimidazo[1,2-c]pyrimidine compounds were made up in dimethylsulfoxide dilution at a concentration of 10^4 mcg./ml. The flasks were incubated for 72 hours at 37° C. […] A solution of 10 percent formalin and 2 percent sodium acetate was added to each flask to inactivate the virus and fix the cell sheet to the surface of the flask. The virus plaques, irrespective of size, were counted after staining the surrounding cell areas with crystal violet. The plaque count was compared to the control count at each drug concentration. The activity of the test compound was expressed as percentage plaque inhibition. Table 3, which follows, embodies the results of these determinations. In the table, column 1 gives the name of the compound, columns 2 through 6, the percent inhibition of herpes simplex plaques at various mcg./ml. levels of drug.

CC1=NC(Cl)=CC2=NCCN12.Cl [5-methyl-7-chloro-2,3-dihydroimidazo[1,2-c]pyrimidine hydrochloride]
Final Score ([1]; vehicle C, 2.5 % conc., top score +16): 7.9 | Final Score ([1]; vehicle D, 2.0 % conc., top score +16): 6.13 | Final Score ([1]; vehicle R, 2.0 % conc., top score +16, hydrochloride): 3.17 and 3.57 | Final Score ([2]; vehicle B): 2.06 | Final Score ([2]; vehicle D): 1.56 | Final Score ([2]; vehicle K): 1.95 | Final Score ([2]; vehicle R): 1.81 | PERCENT INHIBITION OF PLAQUES AT 50 mcg/ml (Herpes simplex virus; 50 mcg/ml, hydrochloride): 82% | inhibition at 6 µg/mL (Herpes simplex virus; 72 h, 6 mcg/ml, read-out: PERCENT INHIBITION OF PLAQUES AT 6 mcg/ml): 0% | inhibition at 12 µg/mL (Herpes simplex virus; 72 h, 12 mcg/ml, read-out: PERCENT INHIBITION OF PLAQUES AT 12 mcg/ml): 0% | inhibition at 50 µg/mL (Herpes simplex virus; 72 h, 50 mcg/ml, read-out: PERCENT INHIBITION OF PLAQUES AT 50 mcg/ml): 85%
